Experimental data published in US20130131321A1, “LIGANDS FOR ANTIBODY AND Fc-FUSION PROTEIN PURIFICATION BY AFFINITY CHROMATOGRAPHY” (GRAFFINITY PHARMACEUTICALS GMBH, priority 2010, published 2013).
Read-outs that look alike come from different tables or passages of the source.

How the values were obtained:
Bevacizumab [1] = target: T1, Bevacizumab (Homo sapiens, UniProt P01857); test: Microtiter plate chromatography of resins, Bevacizumab whole IgG (bound, yield, selectivity); type: binding, humanized
T1 construct: fused on or other part: humanised anti-VEGF-A VH domain N-terminal of the gamma-1 constant region (engineered, no UniProt entry)

Bevacizumab [2] = test: as above; type: binding, humanized
Tocilizumab = test: Microtiter plate chromatography of resins, Tocilizumab (bound, yield); type: binding, humanized
Palivizumab = test: Microtiter plate chromatography of resins, Palivizumab (bound, yield); type: binding, humanized
[3] = system: human poly-IgG (h-poly-IgG); test: Microtiter plate chromatography of resins, human poly-IgG (bound, yield); type: binding
host cell proteins (HCP) = test: Microtiter plate chromatography of resins, host cell proteins (bound); type: binding, CHO
[4] = fraction of whole IgG Bevacizumab bound to resin
[5] = mass of whole IgG Bevacizumab eluted / mass injected
[6] = fraction of injected protein bound to resin
[7] = fraction of bound Bevacizumab whole IgG / fraction of bound HCP, truncated beyond values of 10

COc1ccc(NC(=O)c2nccc3ccccc23)cc1C(=O)NCCCN [Ligand L35, 5-(1-Isoquinolinyl)carboxamido-2-methoxybenzoic acid N-(3-aminopropyl)amide]
Bevacizumab IgG Bound (%) (Bevacizumab [1]; [4]): 100%
Bevacizumab IgG Yield (%) (Bevacizumab [1]; [5]): 96%
Selectivity (Bevacizumab [2]): 2.0
Tocilizumab Bound (%) (Tocilizumab): 100%
Tocilizumab Yield (%) (Tocilizumab): 92%
Palivizumab Bound (%) (Palivizumab): 100%
Palivizumab Yield (%) (Palivizumab): 95%
h-poly-IgG Bound (%) [3]: 95%
h-poly-IgG Yield (%) [3]: 76%
HCP Bound (%) (host cell proteins (HCP); host cell proteins): 51%

COc1ccc(NC(=O)c2c[nH]c3ccccc23)cc1C(=O)NCCCN [Ligand L26, 5-(Indol-3-yl)carboxamido-2-methoxybenzoic acid N-(3-aminopropyl)amide]
Bevacizumab IgG Bound (%) (Bevacizumab [1]; [4]): 100%
Bevacizumab IgG Yield (%) (Bevacizumab [1]; [5]): 94%
Selectivity (Bevacizumab [2]): 2.4
Tocilizumab Bound (%) (Tocilizumab): 77%
Tocilizumab Yield (%) (Tocilizumab): 84%
Palivizumab Bound (%) (Palivizumab): 58%
Palivizumab Yield (%) (Palivizumab): 59%
h-poly-IgG Bound (%) [3]: 75%
h-poly-IgG Yield (%) [3]: 74%
HCP Bound (%) (host cell proteins (HCP); host cell proteins): 42%

CCn1nc(C(=O)Nc2ccc(OC)c(C(=O)NCCCN)c2)c2ccccc21 [Ligand L38, 5-(1-Ethylindazol-3-ylcarboxamido)-2-methoxybenzoic acid (3-amino-1-propyl)amide]
Bevacizumab IgG Bound (%) (Bevacizumab [1]; [4]): 100%
Bevacizumab IgG Yield (%) (Bevacizumab [1]; [5]): 100%
Selectivity (Bevacizumab [2]): 2.2
Tocilizumab Bound (%) (Tocilizumab): 100%
Tocilizumab Yield (%) (Tocilizumab): 99%
Palivizumab Bound (%) (Palivizumab): 91%
Palivizumab Yield (%) (Palivizumab): 79%
h-poly-IgG Bound (%) [3]: 100%
h-poly-IgG Yield (%) [3]: 99%
HCP Bound (%) (host cell proteins (HCP); host cell proteins): 45%

COc1ccc(NC(=O)c2nc(-c3ccco3)no2)cc1C(=O)NCCCN [Ligand L55, 5-[3-(2-Furyl)-1,2,4-oxadiazol-5-ylcarboxamido]-2-methoxybenzoic acid (3-amino-1-propyl)amide]
Bevacizumab IgG Bound (%) (Bevacizumab [1]; [4]): 100%
Bevacizumab IgG Yield (%) (Bevacizumab [1]; [5]): 95%
Selectivity (Bevacizumab [2]): 3.3
Tocilizumab Bound (%) (Tocilizumab): 100%
Tocilizumab Yield (%) (Tocilizumab): 100%
Palivizumab Bound (%) (Palivizumab): 100%
Palivizumab Yield (%) (Palivizumab): 99%
h-poly-IgG Bound (%) [3]: 100%
h-poly-IgG Yield (%) [3]: 93%
HCP Bound (%) (host cell proteins (HCP); host cell proteins): 31%

COc1ccc(NC(=O)c2cn3ccsc3n2)cc1C(=O)NCCCCCC(=O)NCCOCCOCCN [Ligand L76, 6-[5-(Imidazo[2,1-b]thiazol-6-ylcarboxamido)-2-methoxyphenylcarboxamido]hexanoic acid (8-amino-3,6-dioxa-1-octyl)amide]
Bevacizumab IgG Bound (%) (Bevacizumab [1]; fraction of injected whole IgG bound to resin): 100%
Bevacizumab IgG Yield (%) (Bevacizumab [1]; mass eluted / mass injected, whole IgG): 98%
Selectivity (Bevacizumab [2]; bound Bevacizumab whole IgG / bound HCP, truncated beyond values of 10): 10.0
Tocilizumab Bound (%) (Tocilizumab; [6]): 93%
Tocilizumab Yield (%) (Tocilizumab; mass eluted / mass injected): 89%
Palivizumab Bound (%) (Palivizumab; [6]): 59%
Palivizumab Yield (%) (Palivizumab; mass eluted / mass injected): 59%
h-poly-IgG Bound (%) [3, 6]: 73%
h-poly-IgG Yield (%) ([3]; mass eluted / mass injected): 73%
HCP Bound (%) (host cell proteins (HCP); fraction of injected host cell proteins bound to resin): 9%

COc1ccc(NC(=O)c2nnc3ccccn23)cc1C(=O)NCCCN [Ligand L43, 2-Methoxy-5-([1,2,4]triazolo[4,3-a]pyridin-3-ylcarboxamido)benzoic acid (3-amino-1-propyl)amide]
Bevacizumab IgG Bound (%) (Bevacizumab [1]; [4]): 100%
Bevacizumab IgG Yield (%) (Bevacizumab [1]; [5]): 90%
Selectivity (Bevacizumab [2]): 8.0
Tocilizumab Bound (%) (Tocilizumab): 88%
Tocilizumab Yield (%) (Tocilizumab): 88%
Palivizumab Bound (%) (Palivizumab): 61%
Palivizumab Yield (%) (Palivizumab): 43%
h-poly-IgG Bound (%) [3]: 90%
h-poly-IgG Yield (%) [3]: 90%
HCP Bound (%) (host cell proteins (HCP); host cell proteins): 13%

COc1ccc(NC(=O)c2cc(-c3csc(C)n3)on2)cc1C(=O)NCCCN [Ligand L42, 2-Methoxy-5-[5-(2-methylthiazol-4-yl)isoxazol-3-ylcarboxamido]benzoic acid (3-amino-1-propyl)amide]
Bevacizumab IgG Bound (%) (Bevacizumab [1]; [4]): 100%
Bevacizumab IgG Yield (%) (Bevacizumab [1]; [5]): 92%
Selectivity (Bevacizumab [2]): 3.1
Tocilizumab Bound (%) (Tocilizumab): 100%
Tocilizumab Yield (%) (Tocilizumab): 99%
Palivizumab Bound (%) (Palivizumab): 99%
Palivizumab Yield (%) (Palivizumab): 99%
h-poly-IgG Bound (%) [3]: 100%
h-poly-IgG Yield (%) [3]: 100%
HCP Bound (%) (host cell proteins (HCP); host cell proteins): 32%

COc1ccc(NC(=O)c2nn(C)c3ncccc23)cc1C(=O)NCCCN [Ligand L44, 2-Methoxy-5-(1-methylpyrazolo[3,4-b]pyridin-3-ylcarboxamido)benzoic acid (3-amino-1-propyl)amide]
Bevacizumab IgG Bound (%) (Bevacizumab [1]; [4]): 100%
Bevacizumab IgG Yield (%) (Bevacizumab [1]; [5]): 100%
Selectivity (Bevacizumab [2]; [7]): 10.0
Tocilizumab Bound (%) (Tocilizumab): 78%
Tocilizumab Yield (%) (Tocilizumab): 78%
Palivizumab Bound (%) (Palivizumab): 56%
Palivizumab Yield (%) (Palivizumab): 56%
h-poly-IgG Bound (%) [3]: 73%
h-poly-IgG Yield (%) [3]: 73%
HCP Bound (%) (host cell proteins (HCP); host cell proteins): 4%

COc1ccc(NC(=O)c2cn3cccnc3n2)cc1C(=O)NCCCN [Ligand L63, 5-(Imidazo[1,2-a]pyrimidin-2-ylcarboxamido)-2-methoxybenzoic acid (3-amino-1-propyl)amide]
Bevacizumab IgG Bound (%) (Bevacizumab [1]; [4]): 100%
Bevacizumab IgG Yield (%) (Bevacizumab [1]; [5]): 95%
Selectivity (Bevacizumab [2]; [7]): 10.0
Tocilizumab Bound (%) (Tocilizumab): 4%
Tocilizumab Yield (%) (Tocilizumab): 4%
Palivizumab Bound (%) (Palivizumab): 0%
Palivizumab Yield (%) (Palivizumab): 0%
h-poly-IgG Bound (%) [3]: 11%
h-poly-IgG Yield (%) [3]: 10%
HCP Bound (%) (host cell proteins (HCP); host cell proteins): 3%

COc1ccc(NC(=O)c2cn3ccccc3n2)cc1C(=O)NCCCN [Ligand L57, 5-(Imidazo[1,2-a]pyridin-2-ylcarboxamido)-2-methoxybenzoic acid (3-amino-1-propyl)amide]
Bevacizumab IgG Bound (%) (Bevacizumab [1]; [4]): 100%
Bevacizumab IgG Yield (%) (Bevacizumab [1]; [5]): 90%
Selectivity (Bevacizumab [2]): 6.3
Tocilizumab Bound (%) (Tocilizumab): 78%
Tocilizumab Yield (%) (Tocilizumab): 78%
Palivizumab Bound (%) (Palivizumab): 44%
Palivizumab Yield (%) (Palivizumab): 42%
h-poly-IgG Bound (%) [3]: 53%
h-poly-IgG Yield (%) [3]: 53%
HCP Bound (%) (host cell proteins (HCP); host cell proteins): 16%

Cc1c(NC(=O)c2cc(-c3cccs3)n(C)n2)cccc1C(=O)NCCCN [Ligand L9, 2-Methyl-3-[1-methyl-5-(2-thienyl)pyrazol-3-yl]carboxamidobenzoic acid N-(3-aminopropyl)amide]
Bevacizumab IgG Bound (%) (Bevacizumab [1]; [4]): 100%
Bevacizumab IgG Yield (%) (Bevacizumab [1]; [5]): 91%
Selectivity (Bevacizumab [2]): 1.7
Tocilizumab Bound (%) (Tocilizumab): 71%
Tocilizumab Yield (%) (Tocilizumab): 64%
Palivizumab Bound (%) (Palivizumab): 41%
Palivizumab Yield (%) (Palivizumab): 33%
h-poly-IgG Bound (%) [3]: 65%
h-poly-IgG Yield (%) [3]: 53%
HCP Bound (%) (host cell proteins (HCP); host cell proteins): 58%

COc1ccc(NC(=O)c2cc(-c3cc(C)sc3C)n(C)n2)cc1C(=O)NCCCN [Ligand L3, 5-[5-(2,5-Dimethyl-3-thienyl)-1-methylpyrazol-3-yl]carboxamido-2-methoxybenzoic acid N-(3-aminopropyl)amide]
Bevacizumab IgG Bound (%) (Bevacizumab [1]; [4]): 100%
Bevacizumab IgG Yield (%) (Bevacizumab [1]; [5]): 89%
Selectivity (Bevacizumab [2]): 1.4
Tocilizumab Bound (%) (Tocilizumab): 97%
Tocilizumab Yield (%) (Tocilizumab): 95%
Palivizumab Bound (%) (Palivizumab): 100%
Palivizumab Yield (%) (Palivizumab): 93%
h-poly-IgG Bound (%) [3]: 102%
h-poly-IgG Yield (%) [3]: 72%
HCP Bound (%) (host cell proteins (HCP); host cell proteins): 62%

COc1ccc(NC(=O)c2cncc(-c3ccc(C(F)(F)F)cc3)c2)cc1C(=O)NCCCN [Ligand L12, 2-Methoxy-5-{3-[4-(trifluoromethyl)phenyl]pyridin-5-yl}carboxamidobenzoic acid N-(3-aminopropyl)amide]
Bevacizumab IgG Bound (%) (Bevacizumab [1]; [4]): 100%
Bevacizumab IgG Yield (%) (Bevacizumab [1]; [5]): 50%
Selectivity (Bevacizumab [2]): 1.6
Tocilizumab Bound (%) (Tocilizumab): 61%
Tocilizumab Yield (%) (Tocilizumab): 49%
Palivizumab Bound (%) (Palivizumab): 52%
Palivizumab Yield (%) (Palivizumab): 41%
h-poly-IgG Bound (%) [3]: 68%
h-poly-IgG Yield (%) [3]: 37%
HCP Bound (%) (host cell proteins (HCP); host cell proteins): 63%
